# Reference: patent US20230066946A1, “1,5-DIPHENYLPYRAZOLYL-3-OXYALKYL ACIDS AND 1-PHENYL-5-THIENYLPYRAZOLYL-3-OXYALKYL ACIDS AND THE USE THEREOF FOR CONTROL OF UNWANTED PLANT GROWTH” (Bayer Aktiengesellschaft, priority 2019, published 2023)
# Assays:
# [1] = tested on: AMARE; assay: Post-emergence herbicidal action against AMARE; format: in vivo, Amaranthus retroflexus; conditions: 1280 g/ha, visual rating about 3 weeks after treatment
# In short: (§1)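 Each pot held twin-sown weeds in sandy loam, treated post-emergence 2 to 3 weeks after sowing at the one-leaf stage. Compound was given as a foliar spray at 1280 or 320 g/ha in 600 litres per hectare water with 0.5% additive. Visual scoring against untreated controls followed after about 3 weeks.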
# [2] = tested on: SETVI; assay: Post-emergence herbicidal action against SETVI; format: in vivo, Setaria viridis; conditions: 1280 g/ha, post-emergence at one-leaf stage, rated visually after about 3 weeks vs untreated controls
# In short: as §1
# [3] = tested on: VIOTR; assay: Pre-emergence herbicidal action against VIOTR; format: in vivo, Viola tricolor; conditions: 1280 g/ha, scored visually after about 3 weeks vs untreated controls
# In short: (§2)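 Scoring is visual, in percent relative to untreated pots, roughly 3 weeks after soil-surface application. Rates were 1280 or 320 g/ha, delivered as WP or EC preparations with 0.5% additive in 600 L/ha water onto freshly sown, covered sandy loam.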
# [4] = tested on: harmful plants; assay: Pre-emergence herbicidal action, summary of Tables 4.1-4.15; format: in vivo; conditions: result in words
# In short: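 Percent herbicidal action (100% = plants dead, 0% = like controls) was assessed visually about 3 weeks after treatment. Application rates of 1280 or 320 g/ha were applied to the covering soil of freshly sown sandy-loam pots, in 600 l/ha water with 0.5% additive, before emergence.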
# [5] = tested on: SETVI; assay: Pre-emergence herbicidal action against SETVI; format: in vivo, Setaria viridis; conditions: 1280 g/ha, scored visually after about 3 weeks vs untreated controls
# In short: as §2
# [6] = tested on: PHBPU; assay: Pre-emergence herbicidal action against PHBPU; format: in vivo, Pharbitis purpurea; conditions: 1280 g/ha, scored visually after about 3 weeks vs untreated controls
# Excerpt: (§3) Seeds of mono- and dicotyledonous weed plants are placed in plastic pots in sandy loam soil (doubly sown with one species each of mono- or dicotyledonous weed plants per pot) and covered with soil. The compounds of the invention, formulated in the form of wettable powders (WP) or as emulsion concentrates (EC), are then applied onto the surface of the covering soil as aqueous suspension or emulsion with addition of 0.5% additive at a water application rate equivalent to 600 litres per hectare. After the treatment, the pots are placed in a greenhouse and kept under good growth conditions for the trial plants. After about 3 weeks, the effect of the preparations is scored visually in comparison with untreated controls as percentages. For example, 100% activity=the plants have died, 0% activity=like control plants. [table] Tables 4.1-4.15 below show the effects of selected compounds of the general formula (I) according to Tables 1 to 3 on various harmful plants at an application rate corresponding to 1280 or 320 g/ha, which have been obtained by the aforementioned experimental method.
# [7] = tested on: ALOMY; assay: Post-emergence herbicidal action against ALOMY; format: in vivo, Alopecurus myosuroides; conditions: 1280 g/ha, post-emergence at one-leaf stage, rated visually after about 3 weeks vs untreated controls
# In short: as §1
# [8] = tested on: ALOMY; assay: Pre-emergence herbicidal action against ALOMY; format: in vivo, Alopecurus myosuroides; conditions: scored visually after about 3 weeks vs untreated controls, 100% = plants have died, 0% = like control plants
# Excerpt: as §3
# [9] = tested on: STEME; assay: Pre-emergence herbicidal action against STEME; format: in vivo, Stellaria media; conditions: scored visually after about 3 weeks vs untreated controls
# In short: as §2
# [10] = tested on: MATIN; assay: Post-emergence herbicidal action against MATIN; format: in vivo, Matricaria inodora; conditions: visual rating about 3 weeks after treatment
# In short: as §1
# [11] = tested on: MATIN; assay: Pre-emergence herbicidal action against MATIN; format: in vivo, Matricaria inodora; conditions: 1280 g/ha, scored visually after about 3 weeks vs untreated controls
# In short: as §2
# [12] = tested on: ECHCG; assay: Post-emergence herbicidal action against ECHCG; format: in vivo, Echinochloa crus-galli; conditions: 1280 g/ha, post-emergence at one-leaf stage, rated visually after about 3 weeks vs untreated controls
# In short: as §1
# [13] = tested on: STEME; assay: Post-emergence herbicidal action against STEME; format: in vivo, Stellaria media; conditions: visual rating about 3 weeks after treatment
# In short: as §1
# [14] = tested on: POLCO; assay: Pre-emergence herbicidal action against POLCO; format: in vivo, Polygonum convolvulus; conditions: 320 g/ha, scored visually after about 3 weeks vs untreated controls
# In short: as §2
# [15] = tested on: AMARE; assay: Pre-emergence herbicidal action against AMARE; format: in vivo, Amaranthus retroflexus; conditions: scored visually after about 3 weeks vs untreated controls; for Pre-emergence action at 320 g/ha against AMARE in %: 100% = plants have died, 0% = like control plants
# In short: as §2
# [16] = tested on: harmful plants; assay: Post-emergence herbicidal action, summary of Tables 5.1-5.16; format: in vivo; conditions: result in words
# Description: Seeds of mono- and dicotyledonous weed plants are placed in plastic pots in sandy loam soil (twin sowing with one species each of mono- or dicotyledonous weed plants per pot), covered with soil and cultivated in a greenhouse under controlled growth conditions. 2 to 3 weeks after sowing, the test plants are treated at the one-leaf stage. The compounds of the invention, formulated in the form of wettable powders (WP) or as emulsion concentrates (EC), are applied to the green parts of the plants as aqueous suspension or emulsion with addition of 0.5% additive at a water application rate equivalent to 600 litres per hectare. After the test plants have been kept in the greenhouse under optimum growth conditions for about 3 weeks, the activity of the preparations is rated visually in comparison to untreated controls. For example, 100% activity=the plants have died, 0% activity=like control plants. Tables 5.1-5.16 below show the effects of selected compounds of the general formula (I) according to Tables 1 to 3 on various harmful plants at an application rate corresponding to 1280 or 320 g/ha, which have been obtained by the aforementioned experimental method. As the results from Tables 5.1-5.16 show, compounds of the invention have good herbicidal post-emergence efficacy against a broad spectrum of weed grasses and weeds. […] For example, compounds Nos. I-002, I-006, I-022, I-056 and I-072 applied by the post-emergence method have very good herbicidal action (80% to 100% herbicidal action) against harmful plants such as Alopecurus myosuroides, Amaranthus retroflexus, Matricaria inodora, Setaria viridis, Pharbitis purpurea and Stellaria media at an application rate of 1.28 kg of active substance or less per hectare.
# [17] = tested on: POLCO; assay: Post-emergence herbicidal action against POLCO; format: in vivo, Polygonum convolvulus; conditions: 320 g/ha, visual rating about 3 weeks after treatment
# In short: as §1
# [18] = tested on: HORMU; assay: Post-emergence herbicidal action against HORMU; format: in vivo, Hordeum murinum; conditions: 320 g/ha, visual rating about 3 weeks after treatment
# Description: [table] Seeds of mono- and dicotyledonous weed plants are placed in plastic pots in sandy loam soil (twin sowing with one species each of mono- or dicotyledonous weed plants per pot), covered with soil and cultivated in a greenhouse under controlled growth conditions. 2 to 3 weeks after sowing, the test plants are treated at the one-leaf stage. The compounds of the invention, formulated in the form of wettable powders (WP) or as emulsion concentrates (EC), are applied to the green parts of the plants as aqueous suspension or emulsion with addition of 0.5% additive at a water application rate equivalent to 600 litres per hectare. After the test plants have been kept in the greenhouse under optimum growth conditions for about 3 weeks, the activity of the preparations is rated visually in comparison to untreated controls. For example, 100% activity=the plants have died, 0% activity=like control plants. Tables 5.1-5.16 below show the effects of selected compounds of the general formula (I) according to Tables 1 to 3 on various harmful plants at an application rate corresponding to 1280 or 320 g/ha, which have been obtained by the aforementioned experimental method.
# [19] = tested on: HORMU; assay: Pre-emergence herbicidal action against HORMU; format: in vivo, Hordeum murinum; conditions: 320 g/ha, scored visually after about 3 weeks vs untreated controls
# Excerpt: as §3
# [20] = tested on: VIOTR; assay: Post-emergence herbicidal action against VIOTR; format: in vivo, Viola tricolor; conditions: 320 g/ha, visual rating about 3 weeks after treatment
# In short: as §1
# [21] = tested on: PHBPU; assay: Post-emergence herbicidal action against PHBPU; format: in vivo, Pharbitis purpurea; conditions: 320 g/ha, visual rating about 3 weeks after treatment
# In short: as §1
structure (smiles),measurement,setting,value
CCOC(=O)COc1nn(-c2ccc(F)cc2)c(-c2ccccc2)c1Br [I-072],Post-emergence action against AMARE in %,[1],80%
same,Post-emergence action against SETVI in %,[2],80%
same,Pre-emergence action against VIOTR in %,[3],80%
same,herbicidal efficacy against harmful plants in the case of pre-emergence treatment,[4],good herbicidal efficacy
same,Pre-emergence action against SETVI in %,[5],80%
same,Pre-emergence action against PHBPU in %,[6],90%
same,Post-emergence action against ALOMY in %,[7],80%
same,Pre-emergence action at 1280 g/ha against ALOMY in %,[8],80%
same,Pre-emergence action against STEME in %,[9]; 1280 g/ha,90%
same,Post-emergence action against MATIN in %,[10]; 1280 g/ha,80%
same,Pre-emergence action against MATIN in %,[11],80%
same,Post-emergence action against ECHCG in %,[12],80%
same,Post-emergence action against STEME in %,[13]; 1280 g/ha,80%
same,Pre-emergence action against POLCO in %,[14],90%
same,Pre-emergence action at 320 g/ha against AMARE in %,[15],80%
same,Pre-emergence action against AMARE in %,[15]; 1280 g/ha,90%
same,herbicidal efficacy against harmful plants when applied post-emergence,[16],very good herbicidal efficacy
COC(=O)C(C)Oc1nn(-c2ccccc2)c(-c2ccc(F)cc2)c1C#N (stereo not drawn) [I-064],Post-emergence action against POLCO in %,[17],80%
same,Pre-emergence action against STEME in %,[9]; 320 g/ha,90%
same,Post-emergence action against MATIN in %,[10]; 320 g/ha,80%
same,Post-emergence action against STEME in %,[13]; 320 g/ha,90%
same,Pre-emergence action against POLCO in %,[14],100%
same,Pre-emergence action at 320 g/ha against AMARE in %,[15],100%
same,Post-emergence action against HORMU in %,[18],90%
same,Pre-emergence action against HORMU in %,[19],90%
same,Post-emergence action against VIOTR in %,[20],100%
same,Post-emergence action against PHBPU in %,[21],80%
